What was measured:
Galectin-1 [1] = target: T1, Galectin-1 (Homo sapiens, UniProt P09382); assay: Inhibition of recombinant galectin 1 in human O type red blood cells by hemagglutinination assay relative to galactose
Galectin-3 [2] = target: T2, Galectin-3 (Homo sapiens, UniProt P17931); assay: Inhibition of recombinant galectin 3 in human O type red blood cells by hemagglutinination assay relative to galactose
Galectin-1 [3] = target: T1, Galectin-1; assay: Binding affinity to galectin 1
Galectin-1 [4] = target: T1, Galectin-1; assay: Inhibition of recombinant galectin 1 in human O type red blood cells by hemagglutinination assay relative to lactose
Galectin-3 [5] = target: T2, Galectin-3; assay: Inhibition of recombinant galectin 3 in human O type red blood cells by hemagglutinination assay relative to lactose
Galectin-3 [6] = target: T2, Galectin-3; assay: Binding affinity to galectin 3
Galectin-3 [7] = target: T2, Galectin-3; assay: Inhibition of galectin 3

T2 sequence (P17931 whole entry): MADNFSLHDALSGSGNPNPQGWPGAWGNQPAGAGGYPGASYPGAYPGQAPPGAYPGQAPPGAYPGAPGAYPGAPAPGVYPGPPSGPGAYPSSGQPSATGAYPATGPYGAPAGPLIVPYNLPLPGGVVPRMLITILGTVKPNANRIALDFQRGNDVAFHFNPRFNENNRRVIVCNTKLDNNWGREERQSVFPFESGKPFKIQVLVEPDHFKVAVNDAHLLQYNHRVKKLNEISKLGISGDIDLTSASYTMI
T1 sequence (P09382 whole entry): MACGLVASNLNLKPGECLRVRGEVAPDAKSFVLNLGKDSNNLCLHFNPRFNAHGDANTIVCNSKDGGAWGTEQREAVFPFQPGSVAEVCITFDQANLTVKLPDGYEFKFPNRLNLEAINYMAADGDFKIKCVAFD

| Molecule | Activity (Galectin-1 [1]) | Activity (Galectin-3 [2]) | further results |
| --- | --- | --- | --- |
| COC(=O)/C=C(\C[C@@H]1O[C@H](CO)[C@H](O)[C@H](O)[C@H]1O)c1ccccc1 | 160 | < 10 | – |
| OC[C@H]1O[C@@H](C/C=C/c2ccccc2)[C@H](O)[C@@H](O)[C@H]1O | < 10 | < 10 | – |
| COC(=O)Cn1cc(C[C@@H]2O[C@H](CO)[C@H](O)[C@H](O)[C@H]2O)nn1 [TRIAZOLYL GALACTOSIDE] | – | – | Kd (Galectin-1 [3]): 5000 µM |
| O=C[C@H](O)[C@@H](O)[C@@H](O)[C@H](O)CO | 1 | 1 | – |
| OC[C@@H]1O[C@H](O[C@@H]2[C@@H](O)[C@H](O)[C@@H](n3cc(CS[C@@H]4O[C@H](CO)[C@@H](O[C@@H]5O[C@H](CO)[C@H](O)[C@H](O)[C@H]5O)[C@H](O)[C@H]4O)nn3)O[C@H]2CO)[C@@H](O)[C@H](O)[C@@H]1O | 2.6 | 5 | Activity (Galectin-1 [4]): 1.3; Activity (Galectin-3 [5]): 2.5 |
| OC[C@@H]1O[C@H](SCC#Cc2ccc(C#CCS[C@@H]3O[C@H](CO)C(O)[C@H](O)[C@H]3O)cc2)[C@@H](O)[C@H](O)[C@@H]1O (single isomer, unassigned) | 20 | < 10 | Activity (Galectin-1 [4]): 10 |
| O=S(=O)(c1ccc2ccccc2c1)[C@@H]1O[C@H](CO)[C@@H](O[C@@H]2O[C@H](CO)[C@H](O)[C@H](O)[C@H]2O)[C@H](O)[C@H]1O | – | – | Kd (Galectin-1 [3]): 40 µM; Kd (Galectin-3 [6]): 313 µM |
| CO[C@@H]1O[C@H](CO)[C@@H](O[C@@H]2O[C@H](CO)[C@H](O)[C@H](NC(=O)c3cc4ccccc4cc3C(=O)O)[C@H]2O)[C@H](O)[C@H]1NC(C)=O | – | – | Kd (Galectin-3 [6]): 0.3 µM |
| OC[C@@H]1O[C@H](O[C@@H]2[C@@H](O)[C@H](O)[C@@H](n3cc(CS[C@@H]4O[C@H](CO)[C@H](O)[C@H](O)[C@H]4O)nn3)O[C@H]2CO)[C@@H](O)[C@H](O)[C@@H]1O | 2.6 | 1.3 | Activity (Galectin-1 [4]): 1.3; Activity (Galectin-3 [5]): 0.7 |
| LACTOSE, ANHYDROUS | 1 | 1 | – |
| C=C(C[C@@H]1O[C@H](CO)[C@H](O)[C@H](O)[C@H]1O)c1cccc([N+](=O)[O-])c1 | 10 | < 10 | – |
| C/C=C/[C@@H]1O[C@H](CO)[C@H](O)[C@H](O)[C@H]1O | < 10 | < 10 | – |
| OC[C@H]1O[C@@H](C/C=C/c2cccc(/C=C/C[C@@H]3O[C@H](CO)[C@H](O)[C@H](O)[C@H]3O)c2)[C@H](O)[C@@H](O)[C@H]1O | 10 | < 10 | Activity (Galectin-1 [4]): 5 |
| CC(=O)C[C@@H]1O[C@H](CO)[C@H](O)[C@H](O)[C@H]1O | < 10 | 10 | – |
| OC[C@@H]1O[C@H](O[C@@H]2[C@@H](O)[C@H](O)[C@@H](OCCCCCCO[C@@H]3O[C@H](CO)[C@@H](O[C@@H]4O[C@H](CO)[C@H](O)[C@H](O)[C@H]4O)[C@H](O)[C@H]3O)O[C@H]2CO)[C@@H](O)[C@H](O)[C@@H]1O | – | – | IC50 (Galectin-3 [7]): 163 µM |
| C#CCS[C@@H]1O[C@H](CO)[C@@H](O[C@@H]2O[C@H](CO)[C@H](O)[C@H](O)[C@H]2O)[C@H](O)[C@H]1O | 1.3 | 2.6 | – |
| OC[C@@H]1O[C@H](SCC#CC#CCS[C@@H]2O[C@H](CO)[C@H](O)[C@H](O)[C@H]2O)[C@@H](O)[C@@H](O)[C@@H]1O | 10 | < 10 | Activity (Galectin-1 [4]): 5 |
| CO[C@@H]1O[C@H](CO)[C@@H](O[C@@H]2O[C@H](CO)[C@H](O)[C@H](O)[C@H]2O)[C@H](O)[C@H]1NC(C)=O | – | – | Activity (Galectin-3 [6]): 67 µM |
| OC[C@@H]1O[C@H](O[C@@H]2[C@@H](O)[C@H](O)[C@@H](SCC#CC#CCS[C@@H]3O[C@H](CO)[C@@H](O[C@@H]4O[C@H](CO)[C@H](O)[C@H](O)[C@H]4O)[C@H](O)[C@H]3O)O[C@H]2CO)[C@@H](O)[C@H](O)[C@@H]1O | 2.6 | 5 | Activity (Galectin-1 [4]): 1.3; Activity (Galectin-3 [5]): 2.5 |
| C#CCS[C@@H]1O[C@H](CO)[C@H](O)[C@H](O)[C@H]1O | < 10 | 20 | – |
| COC(=O)/C=C/C[C@@H]1O[C@H](CO)[C@H](O)[C@H](O)[C@H]1O | 10 | 10 | – |
| C=C(C[C@@H]1O[C@H](CO)[C@H](O)[C@H](O)[C@H]1O)c1ccc(OC)cc1 | < 10 | 10 | – |
| OC[C@@H]1O[C@H](n2cc(CS[C@@H]3O[C@H](CO)[C@H](O)[C@H](O)[C@H]3O)nn2)[C@@H](O)[C@H](O)[C@@H]1O | < 10 | 20 | Activity (Galectin-3 [5]): 10 |
| O=C(N[C@@H]1[C@H](O)[C@H](CO)O[C@H](S[C@@H]2O[C@H](CO)[C@H](O)[C@H](NC(=O)c3ccc([N+](=O)[O-])cc3)[C@H]2O)[C@H]1O)c1ccc([N+](=O)[O-])cc1 | – | – | Kd (Galectin-3 [6]): 0.033 µM |
| OC[C@@H]1O[C@H](n2cc(CS[C@@H]3O[C@H](CO)[C@@H](O[C@@H]4O[C@H](CO)[C@H](O)[C@H](O)[C@H]4O)[C@H](O)[C@H]3O)nn2)[C@@H](O)[C@H](O)[C@@H]1O | 1.3 | 2.6 | Activity (Galectin-1 [4]): 0.7; Activity (Galectin-3 [5]): 1.3 |
| CO[C@@H]1O[C@H](CO)[C@@H](O[C@@H]2O[C@H](CO)[C@H](O)[C@H](O)[C@H]2O)[C@H](O)[C@H]1O | – | – | Activity (Galectin-3 [6]): 220 µM |

— ChEMBL document CHEMBL1156608, “Synthesis of stable and selective inhibitors of human galectins-1 and -3” (Bioorg Med Chem, 2008)
